Test [1] concerns Leishmania aethiopica. The experiment in a line: Antileishmanial activity against promastigote form of Leishmania aethiopica MHOM/ET/82/117-82 […] after 72 hr. Format: functional, organism-based. As to conditions: MHOM/ET/82/117-82, 72 h.
Test [2] relates to Leishmania aethiopica. The experiment in a line: Antileishmanial activity against amastigote form of Leishmania aethiopica MHOM/ET/82/117-82 infected in BALB/c mouse peritoneal exudate macrophages after 5 days. As to conditions: MHOM/ET/82/117-82, 120 h. In kind it is functional, organism-based.

SMILES strings stand for the structures. Converted amounts (≈) assume the structure as drawn.

Broadly, the IC50 is the midpoint of a concentration-inhibition curve. Higher therefore signals weaker potency.

With `CCCCC/C=C\C/C=C\CCCCCCCC(=O)OCC(COC(=O)CCCCCCC/C=C\C/C=C\CCCCC)OC(=O)CCCCCCC/C=C\CCCCCCCC`, the 50% inhibitory concentration (IC50) in test [1] was found to be 0.079 µg/mL (≈ 0.0896 µM); in test [2], 40 µg/mL (≈ 45.4 µM).
Turning to `CCCCC/C=C\C/C=C\CCCCCCCC(=O)OC(COC(=O)CCCCCCC/C=C\CCCCCCCC)COC(=O)CCCCCCC/C=C\CCCCCCCC`, the IC50 in test [1] turned out to be 242 µg/mL (≈ 274 µM); in test [2], 26.8 µg/mL (≈ 30.3 µM).
For `C[C@@H]1[C@H](O)[C@@H](C)/C=C/C=C/C=C/C=C/C=C/C=C/C=C/[C@H](O[C@@H]2O[C@H](C)[C@@H](O)[C@H](N)[C@@H]2O)C[C@@H]2O[C@](O)(C[C@@H](O)C[C@@H](O)[C@H](O)CC[C@@H](O)C[C@@H](O)CC(=O)O[C@H]1C)C[C@H](O)[C@H]2C(=O)O` [AMPHOTERICIN B], the values for the IC50 in test [1] and in test [2] were 0.004 µg/mL (≈ 0.00433 µM) and 0.032 µg/mL (≈ 0.0346 µM), respectively.
`CCCCCCCCCCCCCCCCOP(=O)([O-])OCC[N+](C)(C)C` [MILTEFOSINE]: the half-inhibitory concentration (IC50) in test [1] came out at 0.136 µg/mL (≈ 0.334 µM); in test [2], 0.121 µg/mL (≈ 0.297 µM).
